Laboratory results taken from US10905757B2, “Cross-reactive T cell epitopes of HIV, SIV, and FIV for vaccines in humans and cats” (priority 2012, dated 2021).
“Also recorded” adds a separate entry of the source.

How the values were obtained:
[1] = test system: CD4+ T cells from FIV-vaccinated cats; assay: CFSE-proliferation, CD4+ T cells from FIV-vaccinated cats; type: cell-based, cat; conditions: for Proliferation (CFSE^low) CD4^+ T cells: prime 1x IWV, post-second MAP boost, peptide or MAP as culture stimulant, >2 positive
Description: (§1) FIGS. 32A and 32B. T-cell proliferation responses to FIV p24 peptide pools by vaccinated cats. […] (FIG. 32A) and CD3^+CD8^+ (FIG. 32B) T-cell proliferation responses are shown for prototype FIV-vaccinated cats. The FIV vaccinated cats were semi-inbred cats with blue, dark red, and pink/green bars from different MHC-lineage colonies. The semi-inbred cats with light pink and green bars are from the same […] lineage. Pools Fp9 and Fp14 are recognized by both HIV^+ subjects and vaccinated cats (i.e., evolutionarily conserved [EC] epitopes) but pools Fp3 and Fp4 are not recognized by HIV^+ subjects (i.e., non-EC epitopes). The IFNγ responses of these cats were either low or below the cut-off threshold of 50 SFU/1×10^6 PBMC. The peptides that stimulated the most proliferation responses: non-EC peptide Fp4-3 in pool Fp4 and EC peptide Fp14-1 in pool Fp14 were used in in vivo study below (FIG. 34).
(§2) FIGS. 33A-33C. IFNγ and T-cell proliferation responses to Fp9 and Fp14 by the FIV-vaccinated cats and FIV-infected cats. The T cells or PBMC from 32 FIV-vaccinated cats were stimulated with either Fp9 or Fp14 and evaluated for proliferation (FIG. 33A) or IFNγ (FIG. 33B) responses. In addition, the PBMC from 32 FIV-infected cats at 22-52 weeks of infection and 20 HIV-1 p24-immunized cats were tested for IFNγ responses to the same peptide pools (FIG. 33B). Three types of laboratory cats were used in these studies: semi-inbred line 1 (Semi-Inbred 1), semi-inbred line 2 (Semi-Inbred 2), and outbred cats (Outbred) from laboratory cat vendors. Semi-inbred cats have been inbred for 3-5 generations with defined feline leukocyte antigen (FLA) alleles and are divided into two FLA haplotype lines. FIV vaccine consisted of prototype dual-subtype FIV vaccine (Coleman et al. 2014). The insert in each panel defines the numbers of each type of cats as well as vaccination (Vac.) or infection (Infect.) status. The number of cat responders used varies between the analyses performed for the individual Fp14 peptides (FIG. 33C, left for IFNγ and right for proliferation).
(§3) Peptide Fp4-3 (left), peptide Fp14-1 (middle) and MAP1 [right] were culture stimulants. IL2 and IFNγ ELISpot results of >50 spot forming units (SFU/10^6 PBMC) and CFSE-proliferation of >2 are considered positive (bolded). The prime-boost vaccination induced IL2 responses in 3 of 4 cats and IFNγ response in one. Larger responses were induced by MAP1 than individual peptides in culture.

[2] = test system: CD3+CD8+ T cells from FIV-vaccinated cats; assay: CFSE-proliferation, CD8+ T cells from FIV-vaccinated cats; type: cell-based, cat; conditions: prime 1x IWV, post-second MAP boost, peptide or MAP as culture stimulant, >2 positive
Description: as §1, §2, §3

[3] = test system: PBMC from FIV-vaccinated cats; assay: IFNγ ELISpot, PBMC from FIV-vaccinated cats (prototype vaccine, or prime plus MAP boosts); type: cell-based, cat; conditions: for IFNγ (SFU): prime 1x IWV, post-second MAP boost, peptide or MAP as culture stimulant, >50 positive
Description: as §3

[4] = test system: FIV infection of naïve cat PBMC; assay: In vitro FIV enhancing/inhibitory (E/I) assay in PBMC from naïve SPF cats (RT titer); type: cell-based; conditions: PBMC from naïve cats
Procedure: FIG. 35. FIV-enhancing versus inhibitory epitopes on peptides and MAPs used in pilot MAP Study. […] Abbreviation: MAP1 plus MAP2 mix (MAP1+2).
FIG. 36A and 36B. FIV/HIV-1 enhancing versus inhibitory epitopes. […] Four epitope peptides were tested in an in vivo efficacy study with prototype vaccine prime and MAP boosts against pathogenic FIV challenge (see MAP section).
To test the possibility that Fp4-3 peptide may be enhancing FIV infection, we performed an in vitro FIV enhancing/inhibitory analysis with all MAP peptides and immunogens. […]. Since MAP2 consisted of peptides FRT3-3 and FRT3-4 with a natural overlap (FIG. 34), such overlap may have blocked the enhancing activity of peptide FRT3-3 while allowing the inhibitory activity of peptide FRT3-4. […] Moreover, none of the MAP vaccinated cats had early detection or enhancement in viral load compared to the control cats. Perhaps, the strong immunity generated by the MAP2 has blocked the enhancing activity of the MAP1 when boosted together (Group 1, Table 3). To test this possibility, in vitro study is currently undergoing to evaluate whether MAP2 can block FIV enhancing activity of MAP1. Furthermore, more cats will be vaccinated with MAP 1b and MAP2 to determine the levels of cytotoxins generated to peptides Fp14-1, FRT3-3 and FRT3-4. Since these peptides have induced CTL-associated cytotoxin expression in T cells from HIV^+ subjects (FIGS. 31A-31B; FIG. 5 in (Sanou et al. 2013)), these EC peptides may also mediate their in vivo effects by inducing anti-FIV specific CTL activity.
However, only peptide Fp4-3 correlated with the in vitro enhancement induced by MAP1. Since the in vitro E/I assay uses PBMC from naïve specific pathogen free (SPF) cats, it is unlikely that the in vitro stimulation of anti-FIV CTLs occurred in the culture and eliminated the infected cells. More likely, these enhancing or inhibitory peptides induced cytokines (enhancement: IFNγ, TNFα, GM-CSF; inhibition: IFNα, IL10), chemokines (inhibition: MIP1α, MIP1β, SDF-1, RANTES), or cellular restriction factors (inhibition: Trim5α, APOBEC3g) that either enhanced or inhibited FIV/HIV-1 infection. […] IFNγ is produced during inflammatory responses to HIV-1 infection (Ipp and Zemlin 2013). Thus, high levels of antiviral cellular immune responses are needed while minimizing both non-specific and viral-specific activation of CD4^+ T cells which can enhance viral replication (Lane 2010). Removal of the enhancing epitopes on FIV and HIV-1 immunogens will be critical to produce an effective HIV-1 vaccine. To accomplish this goal, we will design a vaccine based on antiviral epitopes directed at inducing viral-specific CD4^+ CTLs, CD8^+ CTLs and polyfunctional T cells, and identifying viral enhancing epitopes to remove from vaccine candidates.

[5] = test system: PBMC from FIV-vaccinated cats; assay: IL2 ELISpot, PBMC from FIV-vaccinated cats (prototype vaccine, or prime plus MAP boosts); type: cell-based, cat; conditions: for IL2 (SFU): prime 1x IWV, post-second MAP boost, peptide or MAP as culture stimulant, >50 positive
Description: as §3

[6] = test system: PBMC from SIV-infected rhesus macaques; type: cell-based, rhesus macaque; conditions: macaques R395, R397, R416, R422
[7] = cat DVB, boost-1 MAP1b, boost-2 MAP1b
[8] = cat DVD, boost-1 MAP1, boost-2 MAP1
[9] = cat QVQ, boost-1 MAP1b, boost-2 MAP1b
[10] = cat QVW, boost-1 MAP1, boost-2 MAP1

Row | Sequence | Proliferation (CFSE^low) CD4^+ T cells [1, 7] | Proliferation (CFSE^low) CD4^+ T cells [1, 8] | Proliferation (CFSE^low) CD4^+ T cells [1, 9] | Proliferation (CFSE^low) CD4^+ T cells [1, 10] | Proliferation (CFSE^low) CD8^+ T cells [2, 7] | Proliferation (CFSE^low) CD8^+ T cells [2, 8] | Proliferation (CFSE^low) CD8^+ T cells [2, 9] | Proliferation (CFSE^low) CD8^+ T cells [2, 10] | IFNγ (SFU) [3, 7] | IFNγ (SFU) [3, 8] | IFNγ (SFU) [3, 9] | IFNγ (SFU) [3, 10] | effect on in vitro FIV infection [4] | IL2 (SFU) [5, 7] | IL2 (SFU) [5, 8] | IL2 (SFU) [5, 9] | IL2 (SFU) [5, 10] | reactivity of PBMC from individual infected macaques [6] | also measured
1 | PTDMATLIMAAPGCA [Fp4-3] | 0 | 3 | 1/1 | 0 | 0 | 6 | 0 | 0 | 0/0 SFU/10^6 PBMC | 132 SFU/10^6 PBMC | 0/0 SFU/10^6 PBMC | 21 SFU/10^6 PBMC | significant enhancement; also recorded: significantly enhanced | 0 SFU/10^6 PBMC | 95 SFU/10^6 PBMC | 0 SFU/10^6 PBMC | 0/0 SFU/10^6 PBMC | – | CD4+ T-cell proliferation in FIV-vaccinated cats (in words) [1]: induced predominantly; IFNγ responses in PBMC from FIV-vaccinated cats (in words) [3]: induced predominantly; also recorded: high levels; IL2 responses in PBMC from FIV-vaccinated cats (in words) [5]: induced predominantly
2 | PTDLATLILAAPGSARVKRDQEQNTAEVKLYLK [MAP1, palmitated multiple antigenic peptide: Fp4-3/furin-sensitive-linker/Fp14-1] | [1] | [2] | [7] | [7] | [10] | [9] | [7] | [6] | [0] SFU/10^6 PBMC | [206] SFU/10^6 PBMC | [43] SFU/10^6 PBMC | [0] SFU/10^6 PBMC | significant enhancement | [76] SFU/10^6 PBMC | [296] SFU/10^6 PBMC | [165] SFU/10^6 PBMC | [9] SFU/10^6 PBMC | – | –
3 | KWRKLVDFRELNKR [H3-4] | – | – | – | – | – | – | – | – | – | – | – | – | – | – | – | – | – | reacted | –
4 | WRKLVDFRE [shorter peptide of HRT3] | – | – | – | – | – | – | – | – | – | – | – | – | – | – | – | – | – | reacted | –
